In the experiment the target is T1, Von Hippel-Lindau (VHL) (Homo sapiens, UniProt P40337).
T1 construct: human recombinant VHL:ElonginB:ElonginC (VBC) complex; with ElonginB, ElonginC
Nature of the experiment: fluorescence-based protein thermal shift assay of purified VBC ([…] VH298, positive control, shift ca. […] °C). Type of experiment: binding. The conditions noted are these: read-out: fluorescence-based protein thermal shift assay of purified VBC (100 μM VH298, po).

Each structure is given as a SMILES string.

T1 sequence (P40337 whole entry): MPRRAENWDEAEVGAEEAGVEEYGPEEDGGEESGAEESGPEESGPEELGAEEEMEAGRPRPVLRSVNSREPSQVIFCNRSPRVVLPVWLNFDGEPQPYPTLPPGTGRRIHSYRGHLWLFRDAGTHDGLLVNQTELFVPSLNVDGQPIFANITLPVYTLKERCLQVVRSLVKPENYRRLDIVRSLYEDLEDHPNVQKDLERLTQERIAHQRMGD
T1 sequence (Q15370 whole entry partner): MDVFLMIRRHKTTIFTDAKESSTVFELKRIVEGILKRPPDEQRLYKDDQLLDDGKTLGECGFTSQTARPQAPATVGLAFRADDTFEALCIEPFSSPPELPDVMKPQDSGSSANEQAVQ
T1 sequence (Q15369 whole entry partner): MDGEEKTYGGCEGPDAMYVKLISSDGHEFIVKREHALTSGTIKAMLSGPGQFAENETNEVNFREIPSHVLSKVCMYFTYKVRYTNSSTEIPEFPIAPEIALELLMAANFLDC

In the case of `Cc1ncsc1-c1ccc(CNC(=O)[C@@H]2C[C@@H](O)CN2C(=O)[C@@H](NC(=O)C2(C#N)CC2)C(C)(C)C)cc1` [VH298, (2 S, 4 R)-1-((S)-2-(1-cyanocyclopropanecarboxamido)-3,3-dimethylbutanoyl)-4-hydroxy-N-(4-(4-methylthiazol-5-yl)benzyl) pyrrolidine-2-carboxamide], the ΔTm at 100 µM is approximately 5 °C.

(Values after publication PMC8184911, “A small molecule HIF-1α stabilizer that accelerates diabetic wound healing” (Nature Communications, 2021).)
